For series [1], the target named is Amyloid-beta precursor protein (Homo sapiens) (UniProt P05067). Description: Inhibition of self-induced aggregation of amyloid beta (1 to 42 residues) (unknown origin) at 25 uM incubated for 48 hrs by Thioflavin T fluorescence assay relative to control.
In series [2] the target is T1, Amine oxidase [flavin-containing] A (Homo sapiens, UniProt P21397).
T1 sequence (P21397 whole entry): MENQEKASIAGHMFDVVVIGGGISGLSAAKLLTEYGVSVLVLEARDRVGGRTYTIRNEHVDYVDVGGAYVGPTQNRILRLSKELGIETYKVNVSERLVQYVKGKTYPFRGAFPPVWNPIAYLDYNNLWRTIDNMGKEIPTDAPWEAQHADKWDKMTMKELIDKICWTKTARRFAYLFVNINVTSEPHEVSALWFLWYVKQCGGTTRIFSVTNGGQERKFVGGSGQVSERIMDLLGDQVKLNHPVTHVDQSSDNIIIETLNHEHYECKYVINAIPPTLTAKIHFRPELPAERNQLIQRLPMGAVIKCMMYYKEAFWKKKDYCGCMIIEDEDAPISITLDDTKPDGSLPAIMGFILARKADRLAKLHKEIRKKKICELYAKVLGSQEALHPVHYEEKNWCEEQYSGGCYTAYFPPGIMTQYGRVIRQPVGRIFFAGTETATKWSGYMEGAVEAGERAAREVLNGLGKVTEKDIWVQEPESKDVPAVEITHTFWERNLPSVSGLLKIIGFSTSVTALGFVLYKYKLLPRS
Description: Inhibition of human MAO-A at 200 uM using p-tyramine as substrate preincubated for 15 mins followed by substrate addition measured after 20 mins by fluorescence-based Amplex Red MAO assay.

Series [3] can be described thus: Antioxidant activity assessed as DPPH radical scavenging activity after 30 mins. It is filed as functional. Background: Loss of DPPH colour is used to gauge radical scavenging.
The species entered for the next series is Homo sapiens. Put plainly: Selectivity index, ratio of IC50 for human MAO-A to IC50 for human MAO-B.
The target of series [4] is T2, Amine oxidase [flavin-containing] B (Homo sapiens, UniProt P27338).
T2 sequence (P27338 whole entry): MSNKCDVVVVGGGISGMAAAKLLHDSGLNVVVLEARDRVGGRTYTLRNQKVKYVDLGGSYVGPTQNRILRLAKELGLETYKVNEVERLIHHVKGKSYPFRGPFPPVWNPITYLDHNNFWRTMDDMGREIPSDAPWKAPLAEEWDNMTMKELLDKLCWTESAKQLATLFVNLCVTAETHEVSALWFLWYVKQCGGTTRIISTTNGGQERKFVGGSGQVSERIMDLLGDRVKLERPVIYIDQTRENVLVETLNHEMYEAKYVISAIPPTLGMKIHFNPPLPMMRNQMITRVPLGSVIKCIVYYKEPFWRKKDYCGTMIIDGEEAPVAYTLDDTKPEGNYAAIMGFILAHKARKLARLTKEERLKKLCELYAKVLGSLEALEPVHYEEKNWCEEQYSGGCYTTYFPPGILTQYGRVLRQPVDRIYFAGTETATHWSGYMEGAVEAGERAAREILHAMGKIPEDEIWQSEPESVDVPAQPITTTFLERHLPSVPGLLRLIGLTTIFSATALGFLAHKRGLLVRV
Put plainly: Inhibition of human MAO-B using p-tyramine as substrate preincubated for 15 mins followed by substrate addition measured after 20 mins by fluorescence-based Amplex Red MAO assay.

Series [5] relates to PC-12. Put plainly: Cytotoxicity against rat PC12 cells at 25 uM after 24 hrs by MTT assay. Format: cell-based. The following applies: pc-12, 24 h.
The nature of the next series: in vitro. On the set-up: dose or concentration left out as unconfirmed. The following applies: PAMPA. For orientation: The PAMPA barrier holds no transporters, so it reflects passive diffusion.
A short description of series [6]: Antioxidant activity assessed as ABTS radical scavenging activity at 25 uM after 6 mins. Format: functional.
Series [7] deals with PC-12. Put plainly: Neuroprotective activity against H2O2-induced cytotoxicity in rat PC12 cells assessed as increase in cell viability at 25 uM preincubated for 24 hrs followed by H2O2 addition and measured after 24 hrs by MTT assay. It is filed as functional, cell-based. In general terms: Tetrazolium assays rely on reduction of a dye to a coloured formazan, in cell work by metabolically active cells.

In series [8] the target is T1, Amine oxidase [flavin-containing] A. Put plainly: Inhibition of human MAO-A using p-tyramine as substrate preincubated for 15 mins followed by substrate addition measured after 20 mins by fluorescence-based Amplex Red MAO assay.

The source made the active and inactive calls. The rule behind the calls is not given here.

By inhibition is commonly meant how much of the control response was suppressed. Usually IC50 stands for the concentration needed to halve the response being measured. As usually defined, the Papp is a coefficient for how fast a substance crosses the barrier.

Amyloid-beta precursor protein (Homo sapiens), sequence (P05067 whole entry, the tested form may be a part): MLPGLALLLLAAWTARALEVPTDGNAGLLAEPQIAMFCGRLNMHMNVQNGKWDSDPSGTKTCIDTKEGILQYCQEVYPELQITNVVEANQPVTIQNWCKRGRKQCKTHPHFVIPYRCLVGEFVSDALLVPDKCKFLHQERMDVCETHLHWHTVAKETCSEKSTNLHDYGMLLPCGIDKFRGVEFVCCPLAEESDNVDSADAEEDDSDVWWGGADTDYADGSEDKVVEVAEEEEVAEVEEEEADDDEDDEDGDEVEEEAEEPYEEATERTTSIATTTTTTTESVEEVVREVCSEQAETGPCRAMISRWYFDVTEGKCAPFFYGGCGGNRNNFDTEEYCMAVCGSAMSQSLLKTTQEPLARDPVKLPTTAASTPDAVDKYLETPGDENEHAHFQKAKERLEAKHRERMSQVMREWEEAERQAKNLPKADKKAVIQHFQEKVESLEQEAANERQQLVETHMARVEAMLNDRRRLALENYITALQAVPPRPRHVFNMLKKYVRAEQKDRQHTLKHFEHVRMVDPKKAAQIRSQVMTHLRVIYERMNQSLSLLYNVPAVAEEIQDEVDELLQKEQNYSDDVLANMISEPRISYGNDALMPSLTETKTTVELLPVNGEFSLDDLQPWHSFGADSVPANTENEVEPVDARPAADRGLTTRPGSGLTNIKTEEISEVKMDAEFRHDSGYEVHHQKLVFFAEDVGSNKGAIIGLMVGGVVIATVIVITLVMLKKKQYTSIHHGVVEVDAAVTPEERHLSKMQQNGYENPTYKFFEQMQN
Description for in vitro: Permeability of the compound at 100 mg/ml after 16 hrs by BBB-PAMPA method

Consider `Cc1ccc(O)c(/C=N/c2ccc(OCc3ccccc3)cc2)c1`, for which the inhibition in series [1] was 61.9%. Also, the “inhibition (INH)” value in series [2] was “Not Active”. Further, the IC50 was > 200 µM in series [3] and 24.6 µM in series [4]. The Ratio IC50 in the series listed under Homo sapiens is > 4.06. Further, in the series with PC-12 [5], the Activity entry was “Non-Toxic”.
For `C[C@]12CC[C@@H]3c4ccc(O)cc4CC[C@H]3[C@@H]1CC[C@@H]2O` [ESTRADIOL], the Papp at 16 h in the series “in vitro” stood at 9.17 ×10⁻⁶ cm/s.
As for `Cc1cccc(/C=N/c2ccc(OCc3ccccc3)cc2)c1O`, the inhibition in [1] worked out at 53.7%. In addition, the “inhibition (INH)” value in series [2] was “Not Active”. Also, the IC50 in series [3] was > 200 µM; in series [4], 15.5 µM. Also, the Ratio IC50 in the series filed under Homo sapiens is > 6.47. The Activity entry with PC-12 [5] is reported as “Non-Toxic”.
For `Oc1ccccc1/C=N/c1ccc(OCc2ccccc2)cc1`, the inhibition in series [1] came out at 63.3%. In addition, the “inhibition (INH)” value in series [2] is “Not Active”. Further, the half-inhibitory concentration (IC50) was > 200 µM in series [3] and 25.1 µM in [4]. Also, the Ratio IC50 in the series listed under Homo sapiens is > 3.98. The Activity entry in the series with PC-12 [5] is given as “Non-Toxic”.
`CCn1cc(C(=O)O)c(=O)c2cc(F)c(N3CCNC(C)C3)c(F)c21` (configuration not stated) [LOMEFLOXACIN] displayed a Papp at 16 h in the series “in vitro” of 1.59 ×10⁻⁶ cm/s.
On to `Oc1ccc(O)c(/C=N/c2ccc(OCc3ccccc3)cc2)c1`, for which the Activity (umolequiv/umol) in series [6] was 0.97. Also, the outcome in the series on PC-12 [7] was Active. This molecule came in with an inhibition in series [1] of 49.2%. Also, the figures for the IC50 in [8], in series [3] and in [4] were 18.8 µM, 21.3 µM and 1.23 µM, respectively. Besides, in the series filed under Homo sapiens, the Ratio IC50 was 15.3. Besides, the Activity entry in the series with PC-12 [5] was “Non-Toxic”.
The molecule `Oc1ccc(Cl)cc1/C=N/c1ccc(OCc2ccccc2)cc1` gave an inhibition in series [1] of 59.6%. In addition, the “inhibition (INH)” value in [2] is reported as “Not Active”. Besides, the 50% inhibitory concentration (IC50) in [3] was > 200 µM; in series [4], 24.8 µM. In the series listed under Homo sapiens, the Ratio IC50 was > 4.03. Also, the Activity entry in the series on PC-12 [5] is recorded as “Non-Toxic”.
`Oc1cccc(/C=N/c2ccc(OCc3ccccc3)cc2)c1O`: the Activity (umolequiv/umol) in [6] came out at 0.6. The result in the series with PC-12 [7] was Active. The inhibition in series [1] is 72.5%. Moreover, the IC50 in [8] was 11.4 µM; in series [3], 13.3 µM; in [4] it was 6.87 µM. The Ratio IC50 in the series listed under Homo sapiens amounted to 1.66. In the series on PC-12 [5], the Activity result is “Non-Toxic”.
Molecule `Cc1ccc(/C=N/c2ccc(OCc3ccccc3)cc2)c(O)c1` yielded an inhibition in [1] of 60.1%. The “inhibition (INH)” value in series [2] is reported as “Not Active”. For the same molecule, the half-maximal inhibitory concentration (IC50) is > 200 µM in series [3] and 24.4 µM in series [4]. Moreover, the Ratio IC50 in the series filed under Homo sapiens is > 4.09. In addition, in the series on PC-12 [5], the Activity result is “Non-Toxic”.
In series [1], `Oc1ccc(/C=N/c2ccc(OCc3ccccc3)cc2)c(O)c1` came in with an inhibition of 59.8%. For the same molecule, in [2], the “inhibition (INH)” value was “Not Active”. Further, the figures for the IC50 in series [3] and in series [4] were > 200 µM and 6.78 µM, respectively. Moreover, the Ratio IC50 in the series filed under Homo sapiens is > 14.8. In addition, in the series with PC-12 [5], the Activity result was “Non-Toxic”.
Consider `COc1ccc(O)c(/C=N/c2ccc(OCc3ccccc3)cc2)c1`, for which, in series [1], the inhibition was found to be 56.6%. In series [2], the “inhibition (INH)” value is given as “Not Active”. Also, the IC50 in series [3] was > 200 µM; in series [4] it was 10.7 µM. In addition, the Ratio IC50 in the series listed under Homo sapiens was > 9.34. For the same molecule, the Activity entry with PC-12 [5] was “Non-Toxic”.
In turn, `Oc1ccc2ccccc2c1/C=N/c1ccc(OCc2ccccc2)cc1` returned an inhibition in series [1] of 73.1%. Also, the “inhibition (INH)” value in [2] was “Not Active”. For the same molecule, the concentration for half-maximal inhibition (IC50) in series [3] was > 200 µM; in [4] it was 19.2 µM. Moreover, the Ratio IC50 in the series filed under Homo sapiens was > 5.22. Also, the Activity result with PC-12 [5] is reported as “Non-Toxic”.
The molecule `COc1cccc(/C=N/c2ccc(OCc3ccccc3)cc2)c1O` displayed an inhibition in series [1] of 53.4%. Moreover, the “inhibition (INH)” value in [2] is “Not Active”. Moreover, the IC50 in series [3] is > 200 µM; in [4] it was 6.5 µM. Also, the Ratio IC50 in the series filed under Homo sapiens is > 15.4. For the same molecule, the Activity result with PC-12 [5] is “Non-Toxic”.
`Oc1ccc(Br)cc1/C=N/c1ccc(OCc2ccccc2)cc1` showed an inhibition in series [1] of 54.3%. For the same molecule, the “inhibition (INH)” value in series [2] is “Not Active”. Besides, the IC50 in series [3] is > 200 µM; in series [4], 31.7 µM. For the same molecule, the Ratio IC50 in the series filed under Homo sapiens was > 3.15. Also, the Activity entry in the series on PC-12 [5] is recorded as “Non-Toxic”.
Consider `Oc1ccc(F)cc1/C=N/c1ccc(OCc2ccccc2)cc1`, for which the inhibition in series [1] stood at 84.4%. Besides, in series [2], the “inhibition (INH)” value is “Not Active”. Besides, the half-maximal inhibitory concentration (IC50) in series [3] was > 200 µM; in [4], 15.3 µM. In addition, in the series listed under Homo sapiens, the Ratio IC50 was > 6.54. Moreover, in the series on PC-12 [5], the Activity result is reported as “Non-Toxic”.
Regarding `Oc1ccc(/C=C/c2cc(O)cc(O)c2)cc1` [RESVERATROL], in series [6], the Activity (umolequiv/umol) amounted to 1.57. In addition, the IC50 in [3] is 82.7 µM.
In the case of `Oc1cc(O)c(/C=N/c2ccc(OCc3ccccc3)cc2)c(O)c1`, the Activity (umolequiv/umol) in series [6] was found to be 0.69. Moreover, the outcome in the series on PC-12 [7] was inactive. Moreover, the inhibition in series [1] is 88.5%. The “inhibition (INH)” value in series [2] is listed as “Not Active”. The figures for the half-maximal inhibitory concentration (IC50) in [3] and in series [4] were 23.9 µM and 10.1 µM, respectively. Besides, in the series filed under Homo sapiens, the Ratio IC50 was > 9.86. The Activity result in the series with PC-12 [5] is “Non-Toxic”.
The molecule `COc1ccc(/C=N/c2ccc(OCc3ccccc3)cc2)c(O)c1` showed an inhibition in [1] of 69.5%. Moreover, the “inhibition (INH)” value in series [2] is “Not Active”. In addition, the IC50 in [3] is > 200 µM; in series [4], 23.6 µM. The Ratio IC50 in the series listed under Homo sapiens is > 4.24. Further, the Activity entry in the series with PC-12 [5] is “Non-Toxic”.
Molecule `Oc1c(Br)cc(Br)cc1/C=N/c1ccc(OCc2ccccc2)cc1` registered an inhibition in [1] of 66.7%. Further, the “inhibition (INH)” value in [2] is on record as “Not Active”. For the same molecule, the IC50 in series [3] was > 200 µM; in series [4], 10.8 µM. Besides, the Ratio IC50 in the series listed under Homo sapiens was > 9.23. The Activity result in the series with PC-12 [5] is “Non-Toxic”.
For the molecule `O=[N+]([O-])c1ccc(O)c(/C=N/c2ccc(OCc3ccccc3)cc2)c1`, the inhibition in series [1] worked out at 70.2%. For the same molecule, the “inhibition (INH)” value in series [2] was “Not Active”. For the same molecule, the IC50 is > 200 µM in series [3] and 60.9 µM in series [4]. Also, the Ratio IC50 in the series filed under Homo sapiens was > 1.64. Besides, the Activity result with PC-12 [5] is “Non-Toxic”.

Values taken from ChEMBL document CHEMBL4177594, “Design, synthesis, and evaluation of salicyladimine derivatives as multitarget-directed ligands against Alzheimer's disease” (Bioorg Med Chem, 2017).
